From ChEMBL document CHEMBL1201862, “PubChem BioAssay data set” (2004)
The source made the active and inactive calls.

How the values were obtained:
[1] = target: Glucose-6-phosphate 1-dehydrogenase (Homo sapiens, UniProt P11413); test: human G6PD enzyme inhibitors, dose response, selectivity assay for P. falciparum G6PD inhibitor project, biochemical, fluorescence (AID 504792); type: functional
Vero = test: cells; type: functional; settings: Chlorocebus sabaeus
[2] = tested on: Streptococcus sp. 'group A'; test: growth inhibition of control SK(-) GAS strain, dose response, counter-screen for streptokinase expression inhibitor project, luminescence, kanamycin, BacTiterGlo, confirmation (AID 1900); type: functional, organism-based
[3] = inhibitors of intracellular T. cruzi replication, confirmation, NIH3T3 host cells, beta-gal luminescence (AID 2044); type: functional, cell-based;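 also: intracellular parasites grown in NIH/3T3 mouse fibroblasts as host cells; luminescent beta-galactosidase reporter signal from transgenic T. cruzi replicating inside host cells; inhibitors lower the luminescence signal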
[4] = cytotoxicity toward NIH3T3 fibroblasts, dose response, counter-screen, cell-based, ATP luminescence, mouse fibroblasts (AID 2010); type: functional;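 also: cells exposed to compound for about 90 hours before reading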
Streptococcus = test: Group A Streptococcus viability loss, dose response, counter-screen for streptokinase expression inhibitor project, luminescence, BacTiterGlo (AID 1915); type: functional, organism-based;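 also: potency for reduction of bacterial viability or growth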
HEK293 = test: inhibitors of LMP1-driven NF-kB reporter, dose response, cell-based, HEK293, luciferase, cherry-pick (AID 588343); type: functional; settings: Homo sapiens
H9c2 = test: cells; type: functional, cell-based; settings: Rattus norvegicus, H9c2, Myocardium;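 also: confirmatory concentration-response retest of ultra-high-throughput screening hits for modulation of myocardial damage; cell death induced by hydrogen peroxide oxidative stress; compound pretreatment for 60 min then peroxide exposure for 2 h; potency is for protecting the cells against peroxide damage rather than for killing them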
[5] = Shn3 3'UTR reporter inhibitors, dose response, cell-based, Clone20 osteoblasts, firefly luciferase, cherry-picked (AID 624132); type: functional;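 also: firefly luciferase luminescence from reporter carrying the Shn3 3'UTR in osteoblasts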
[6] = HepG2 cell cytotoxicity, dose response, cytotoxicity control for Shn3 inhibitor project, CellTiter-Glo, cherry-picked (AID 624134); type: functional, cell-based
[7] = control 3'UTR Renilla luciferase suppression, dose response, counter-screen for Shn3 inhibitor project, cell-based, Clone20-Shn3RL, cherry-picked (AID 624133); type: functional
Cryptococcus neoformans = test: PubChem AID 686997; type: functional, organism-based; settings: Cryptococcus neoformans
[8] = target: T1, Adenosylmethionine-8-amino-7-oxononanoate aminotransferase (Mycobacterium tuberculosis, UniProt P9WQ81); test: Mycobacterium tuberculosis BioA enzyme inhibitor Measured in Biochemical System Using Plate Reader - 2163-02_Inhibitor_Dose_CherryPick_Activity.; type: functional, Mycobacterium tuberculosis UT205
T1 sequence (P9WQ81 whole entry): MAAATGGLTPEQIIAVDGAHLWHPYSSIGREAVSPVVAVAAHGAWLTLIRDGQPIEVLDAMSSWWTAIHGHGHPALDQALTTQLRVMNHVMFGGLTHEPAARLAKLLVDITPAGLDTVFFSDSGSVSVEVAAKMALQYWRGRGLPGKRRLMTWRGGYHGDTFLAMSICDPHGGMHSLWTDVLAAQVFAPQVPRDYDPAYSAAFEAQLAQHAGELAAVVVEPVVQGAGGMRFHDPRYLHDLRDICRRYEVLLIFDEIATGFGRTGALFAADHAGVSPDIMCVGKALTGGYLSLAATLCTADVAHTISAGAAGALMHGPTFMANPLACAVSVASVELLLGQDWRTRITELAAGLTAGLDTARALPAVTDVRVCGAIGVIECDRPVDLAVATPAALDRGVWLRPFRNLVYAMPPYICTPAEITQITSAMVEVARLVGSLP

Jurkat = test: antigen receptor-induced NF-kB inhibitors, dose response, Jurkat, luciferase reporter, luminescence, B- and T-cell (AID 489004); type: functional, cell-based; settings: Homo sapiens;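 also: NF-kB luciferase reporter Jurkat cells stimulated with PMA plus ionomycin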
[9] = cytotoxicity in HEK-293T NF-kB-Luc cells, dose response, cytotoxicity control for B/T-cell NF-kB inhibitor project, cell-based, uHTS hits (AID 489019); type: functional;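 also: IC50 reflects cytotoxicity as loss of cell viability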
Cytochrome P450 1A2 = target: T2, Cytochrome P450 1A2 (Homo sapiens, UniProt P05177);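 also: PubChem cytochrome P450 panel assay, CYP1A2 panel member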
T2 sequence (P05177 whole entry): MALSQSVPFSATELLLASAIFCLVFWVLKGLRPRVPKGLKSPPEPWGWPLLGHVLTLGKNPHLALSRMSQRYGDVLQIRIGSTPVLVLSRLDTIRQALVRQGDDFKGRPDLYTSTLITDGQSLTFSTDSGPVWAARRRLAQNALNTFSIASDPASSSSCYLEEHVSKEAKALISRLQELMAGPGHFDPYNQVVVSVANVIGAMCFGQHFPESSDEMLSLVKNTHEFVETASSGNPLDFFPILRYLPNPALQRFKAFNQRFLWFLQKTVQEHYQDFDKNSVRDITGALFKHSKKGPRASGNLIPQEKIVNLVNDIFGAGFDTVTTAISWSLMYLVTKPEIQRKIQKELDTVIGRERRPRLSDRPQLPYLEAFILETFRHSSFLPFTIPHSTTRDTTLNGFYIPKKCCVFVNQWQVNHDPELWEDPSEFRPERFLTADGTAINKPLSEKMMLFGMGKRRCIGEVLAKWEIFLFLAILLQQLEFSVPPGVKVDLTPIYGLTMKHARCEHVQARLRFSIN

Cytochrome P450 2C9 = Cytochrome P450 2C9 (Homo sapiens, UniProt P11712)
[10] = target: T3, Endoribonuclease toxin MazF (Escherichia coli K-12, UniProt P0AE70); test: MazF toxin RNase activators, dose response, biochemical, fluorescence, single-stranded RNA substrate, uHTS hits (AID 588481); type: functional
T3 sequence (P0AE70 whole entry): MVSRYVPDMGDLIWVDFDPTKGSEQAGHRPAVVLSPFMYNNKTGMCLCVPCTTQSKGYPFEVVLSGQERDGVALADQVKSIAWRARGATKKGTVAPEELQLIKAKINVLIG

[11] = target: T3, Endoribonuclease toxin MazF; test: fluorescent RNA oligo signal without MazF, dose response, counter-screen for MazEF activator project, biochemical, fluorescence, single-stranded RNase substrate (AID 588502); type: functional
[12] = target: T4, Replicative DNA helicase DnaB (Mycobacterium tuberculosis, UniProt P9WMR3); test: DnaB intein splicing inhibitors, dose response, biochemical, cell-free fluorescence (AID 449749); type: functional
T4 sequence (P9WMR3 whole entry): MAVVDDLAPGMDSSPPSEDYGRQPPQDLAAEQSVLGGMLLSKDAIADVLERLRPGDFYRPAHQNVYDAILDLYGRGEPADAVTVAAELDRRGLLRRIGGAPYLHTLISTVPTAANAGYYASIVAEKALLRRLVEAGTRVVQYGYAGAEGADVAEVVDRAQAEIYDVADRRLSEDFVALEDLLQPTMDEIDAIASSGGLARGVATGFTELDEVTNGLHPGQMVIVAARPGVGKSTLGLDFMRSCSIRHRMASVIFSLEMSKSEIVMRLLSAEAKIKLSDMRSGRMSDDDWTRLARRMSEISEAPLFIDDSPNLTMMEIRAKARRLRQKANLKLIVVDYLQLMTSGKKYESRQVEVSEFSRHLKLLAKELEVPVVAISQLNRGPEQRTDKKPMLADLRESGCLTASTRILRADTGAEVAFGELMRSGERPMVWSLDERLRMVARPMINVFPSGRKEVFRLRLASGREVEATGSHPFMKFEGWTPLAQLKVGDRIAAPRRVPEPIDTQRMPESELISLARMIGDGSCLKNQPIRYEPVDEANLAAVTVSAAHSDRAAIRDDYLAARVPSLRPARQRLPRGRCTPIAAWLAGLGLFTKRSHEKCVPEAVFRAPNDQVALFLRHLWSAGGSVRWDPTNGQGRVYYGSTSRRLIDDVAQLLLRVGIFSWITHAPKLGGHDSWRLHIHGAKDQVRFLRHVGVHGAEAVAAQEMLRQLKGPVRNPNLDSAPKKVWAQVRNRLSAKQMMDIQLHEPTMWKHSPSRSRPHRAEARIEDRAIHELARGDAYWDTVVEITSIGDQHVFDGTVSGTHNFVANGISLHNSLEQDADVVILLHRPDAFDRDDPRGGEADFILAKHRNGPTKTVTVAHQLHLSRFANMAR

Protein RecA = target: T5, Protein RecA (Mycobacterium tuberculosis, UniProt P9WHJ3); test: Fluorescence Cell-Free Homogeneous Dose Retest to Identify Inhibitors of RecA-Intein Splicing Activity. [Related pubchem assays (depositor defined):AID2097, AID2223, AID489010, AID492950]; type: functional
T5 sequence (P9WHJ3 whole entry): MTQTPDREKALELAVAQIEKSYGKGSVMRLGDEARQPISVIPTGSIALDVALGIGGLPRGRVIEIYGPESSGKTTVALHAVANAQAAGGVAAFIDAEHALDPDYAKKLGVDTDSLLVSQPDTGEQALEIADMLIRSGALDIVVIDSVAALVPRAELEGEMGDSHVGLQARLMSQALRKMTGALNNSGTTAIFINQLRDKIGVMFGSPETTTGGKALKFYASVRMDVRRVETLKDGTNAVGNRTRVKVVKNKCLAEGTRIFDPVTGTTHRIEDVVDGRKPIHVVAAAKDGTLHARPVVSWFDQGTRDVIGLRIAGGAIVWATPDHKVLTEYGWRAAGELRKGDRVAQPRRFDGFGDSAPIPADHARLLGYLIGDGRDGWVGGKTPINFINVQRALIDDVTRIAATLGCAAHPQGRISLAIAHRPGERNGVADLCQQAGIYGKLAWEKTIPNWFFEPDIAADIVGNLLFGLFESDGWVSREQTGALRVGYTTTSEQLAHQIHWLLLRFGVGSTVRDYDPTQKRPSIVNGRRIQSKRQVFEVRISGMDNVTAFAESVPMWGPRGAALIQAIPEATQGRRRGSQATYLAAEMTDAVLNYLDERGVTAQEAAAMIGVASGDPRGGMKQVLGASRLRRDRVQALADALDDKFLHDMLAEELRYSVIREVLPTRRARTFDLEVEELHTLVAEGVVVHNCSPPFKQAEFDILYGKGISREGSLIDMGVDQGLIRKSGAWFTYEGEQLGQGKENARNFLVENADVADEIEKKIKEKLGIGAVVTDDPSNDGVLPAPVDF

[13] = T. cruzi growth inhibition in host cells, dose response, cell-based, plate reader, dry powder, set 2 (AID 652275); type: functional
INS1 = test: beta cell apoptosis inhibitors, cytokine rescue, dose response, luminescence, retest (AID 449756); type: functional, cell-based; settings: Rattus norvegicus;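 also: cell death triggered by IL-1 beta plus TNF-alpha plus IFN-gamma mixture; protective hits raise ATP signal compared with cytokine alone wells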
[14] = inhibitors of HIV Env-driven cell fusion, dose response, cherry-pick (AID 652057); type: functional, cell-based
[15] = CEM21 lymphoblast cell cytotoxicity, dose response, cytotoxicity control for viral fusion inhibitor project, CellTiter-Glo luminescence, cherry-picked (AID 652042); type: functional, cell-based;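 also: potency for signal decrease meaning cytotoxicity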
[16] = inhibitors of clade B AD8 Env fusion, dose response, cell-based, cherry-pick (AID 652062); type: functional;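 also: luciferase signal from cell-cell fusion driven by HIV-1 clade B AD8 Env; potency is for inhibitors of fusion seen as a drop in luminescence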

Chain of Glucose-6-phosphate 1-dehydrogenase (P11413 whole entry): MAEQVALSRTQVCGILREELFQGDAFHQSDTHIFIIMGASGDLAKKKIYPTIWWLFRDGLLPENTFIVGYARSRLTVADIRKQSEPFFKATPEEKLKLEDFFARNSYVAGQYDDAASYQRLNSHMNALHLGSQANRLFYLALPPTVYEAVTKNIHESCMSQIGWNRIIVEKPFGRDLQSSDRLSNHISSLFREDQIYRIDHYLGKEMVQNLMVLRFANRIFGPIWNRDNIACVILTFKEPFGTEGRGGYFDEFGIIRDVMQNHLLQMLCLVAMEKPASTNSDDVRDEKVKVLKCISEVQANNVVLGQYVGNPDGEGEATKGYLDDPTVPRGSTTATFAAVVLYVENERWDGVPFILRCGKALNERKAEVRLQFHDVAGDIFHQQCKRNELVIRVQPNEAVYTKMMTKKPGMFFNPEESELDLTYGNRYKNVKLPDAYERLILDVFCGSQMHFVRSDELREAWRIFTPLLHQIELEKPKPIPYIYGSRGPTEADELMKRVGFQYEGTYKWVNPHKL
Chain of Cytochrome P450 2C9 (P11712 whole entry): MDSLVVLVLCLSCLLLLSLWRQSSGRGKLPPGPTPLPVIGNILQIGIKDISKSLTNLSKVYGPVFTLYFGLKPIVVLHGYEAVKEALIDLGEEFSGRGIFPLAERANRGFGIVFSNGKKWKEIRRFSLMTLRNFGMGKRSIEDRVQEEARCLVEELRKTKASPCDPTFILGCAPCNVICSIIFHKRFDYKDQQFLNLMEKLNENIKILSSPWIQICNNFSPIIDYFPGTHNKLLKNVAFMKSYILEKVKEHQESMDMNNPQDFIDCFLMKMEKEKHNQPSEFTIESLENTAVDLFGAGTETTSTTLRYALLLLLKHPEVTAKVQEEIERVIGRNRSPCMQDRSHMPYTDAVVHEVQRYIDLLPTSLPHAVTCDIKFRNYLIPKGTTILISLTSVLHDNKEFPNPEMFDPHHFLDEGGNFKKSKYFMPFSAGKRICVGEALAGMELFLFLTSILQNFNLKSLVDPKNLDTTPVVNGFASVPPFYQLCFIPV

COc1cc(NCCCn2cnc3c(OCc4ccccc4)ncnc32)cc(OC)c1OC
IC50 [1]: > 80 µM (inactive)

CCN(CC)CCCN(C(=O)c1ccccc1F)c1nc(-c2ccc(OC)cc2)cs1
CC50 (Vero): 17.6 µM (active)

CCCN(CCC)S(=O)(=O)c1ccc(C(=O)Nc2nnc(-c3cc(OC)cc(OC)c3)o2)cc1
EC50 [2]: 0.12 µM (active) | EC50 [3]: 0.965 µM (active) | EC50 [4]: 3.92 µM (active) | EC50 (Streptococcus): 0.43 µM (active) | AC50 (HEK293): 2.51 µM (active) | IC50 (H9c2): > 79 µM (inactive) | AC50 [5]: 2.64 µM (active) | AC50 [6]: 1.33 µM (active) | AC50 [7]: 3.45 µM (active)

O=C1C(c2cc(O)c3ccccc3n2)=C(O)c2ccccc21
IC50 [1]: 53.4 µM (inactive)

COc1cccc(NC(=S)N2CCC(Cc3ccccc3)CC2)c1
AC50 (Cryptococcus neoformans): 36.8 µM (active)

CCCN(CCC)c1[nH]cnc2ncnc1-2
AC50 (HEK293): 21.2 µM (active)

Clc1ccc(CSc2nnc(-c3cccnc3)o2)cc1
AC50 [8]: 4.13 µM (active)

Cc1cc([N+](=O)[O-])nn1Cc1ccccc1F
IC50 (Jurkat): > 80 µM (inactive) | IC50 [9]: > 80 µM (inactive) | AC50 (Cytochrome P450 1A2): 22.4 µM (inconclusive) | AC50 (Cytochrome P450 2C9): inconclusive

C=CCSC1=N/C(=C\c2cc(OC)c3c(c2)OCO3)C(=O)S1
EC50 [10]: 20.7 µM (inactive) | EC50 [11]: 64.5 µM (inactive)

COc1ccc(CCc2cc(OC)c(OC)c(OC)c2)cc1
CC50 (Vero): 1.66 µM (active)

Cc1ccccc1N(Cc1cc(O)nc2ccccc12)C(=O)CCl
AC50 [12]: 50.5 µM (active) | EC50 (Protein RecA): 6.26 µM (active) | CC50 (Vero): 17.5 µM (active)

Nc1nc(N)c2cc(S(=O)(=O)c3ccc4ccccc4c3)ccc2n1
EC50 [10]: > 99 µM (inactive) | EC50 [11]: > 99 µM (inactive) | AC50 [5]: 3.37 µM (active) | AC50 [6]: 2.82 µM (active)

CN1/C(=C/C(=O)c2ccc(Cl)cc2)Sc2cc3c(cc21)OCO3
EC50 [10]: > 99 µM (inactive) | EC50 [11]: 62.3 µM (inactive)

COc1ccccc1CN(C)C[C@H]1Oc2c(NC(=O)c3ccncc3)cccc2C(=O)N([C@@H](C)CO)C[C@@H]1C
AC50 [13]: 0.078 µM (active)

CCCCN1C(=O)c2ccc(C(=O)Nc3cccnc3)cc2C1=O
AC50 [8]: 0.544 µM (active)

O=C(OCCOc1cccc(Cl)c1)c1cc(S(=O)(=O)N2CCCCC2)ccc1N1CCOCC1
EC50 [3]: 3.05 µM (active) | EC50 [4]: > 30 µM (not active) | AC50 (INS1): 4.81 µM (active) | AC50 [14]: 48.3 µM (active) | AC50 [15]: 52.3 µM (active) | AC50 [16]: 22.1 µM (active)

CC(C)N1C[C@@H](CN(C)Cc2ccc(Cl)cc2)Oc2c(C(=O)Nc3ccncc3)cccc2C1=O
AC50 [13]: 0.00079 µM (active)

Cc1ccc(C)c(Nc2nc3c(S(=O)(=O)c4ccccc4)nnn3c3ccccc23)c1
EC50 [10]: > 99 µM (inactive) | EC50 [11]: > 99 µM (inactive)

O=C(Nc1ccc(F)c(Cl)c1)C1CCCN(c2cnccn2)C1 (stereo not given)
EC50 [3]: 0.39 µM (active) | EC50 [4]: > 60 µM (not active) | AC50 [8]: 3.25 µM (active)
